Earlier results on one compound are cited in patent US5420288A, “Electroluminescent device comprising oxadiazole compounds luminescent material, oxadiazole compounds for the device, and method of producing oxadiazole compounds” (Ricoh Company, Ltd., priority 1992, dated 1995).

The conditions of the data set: conventional materials, background.

On to `CC(C)(C)c1ccc(-c2nnc(-c3ccc(-c4ccccc4)cc3)o2)cc1` [2-(4-tert-butylphenyl)-5-(p-biphenyl)-1,3,4-oxadiazole], for which the “film-forming properties / crystallization / stability” value was “easily crystallized and lacks in the stability”.
